Experimental data from the supplement of paper PMC3493320.

Test system: NCI-H295R
Experiment: IC50 (antiproliferative, ATP content)
Conditions: 48 h
Method in brief: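 Compounds were pin-transferred at 8 final concentrations between 0.6 nM and 46 µM onto adrenocortical carcinoma cells (1500 per well, 1536-well plates) that had been cultured overnight in serum-free DMEM with ITS. Plates then stood 48 h at 37 °C, 5% CO2, and ATP was detected by CellTiter-Glo luminescence. IC50 was derived from logistic fits of normalised signal, and compounds giving no concentration response were noted as above the top dose.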

| Compound | IC50 [µM] |
| --- | --- |
| NCCCC(=O)O | > 46 |
| N[C@H](CO)C(=O)O | > 46 |
| C=CCN1CC[C@]23CCCC[C@H]2[C@H]1Cc1ccc(O)cc13 | > 46 |
| CC=CC=CC(=O)O | > 46 |
| CNCC(O)c1ccc(O)cc1 (configuration not stated) | > 46 |
| N=C(N)NN.N=C(N)NN.O=S(=O)(O)O | > 46 |
| C[C@@H](O)[C@H]1C(=O)N2C(C(=O)O)=C(S[C@@H]3CN[C@H](C(=O)N(C)C)C3)[C@H](C)[C@H]12 | > 46 |
| CC12CCC(C1)C(C)(C)C2=O (configuration not stated) | > 46 |
| CCOC(=O)c1cncn1C(C)c1ccccc1 (configuration not stated) | > 46 |
| O=C(C(CCC)CCC)O[C@@H]1C[C@H](CC2)[N@@+](C)(C)[C@H]2C1.[Br-] | > 46 |
| Cl.NCCCC(N)(C(=O)O)C(F)F (configuration not stated) | > 46 |
| NS(=O)(=O)c1cc2c(cc1Cl)NC(CC1CCCC1)NS2(=O)=O (configuration not stated) | > 46 |
| COCC(C)N(C(=O)CCl)c1c(C)csc1C (configuration not stated) | > 46 |
| OC(O)C(Cl)(Cl)Cl | > 46 |
| C=C[C@]1(C)C[C@@H](OC(=O)CSCCN(CC)CC)[C@]2(C)[C@@H]3C(=O)CC[C@@]3(CC[C@@H]2C)[C@@H](C)[C@@H]1O | > 46 |
| ClCc1ccccc1.O=C1C[C@@H]2OCC=C3CN4CC[C@]56c7ccccc7N1[C@H]5[C@H]2[C@H]3C[C@H]46 | > 46 |

| Compound | IC50 [µM] |
| --- | --- |
| c1csc(C2(N3CCCCC3)CCCCC2)c1 | > 46 |
| O=C1C2CC3CC1CC(O)(C3)C2 | > 46 |
| CC(C)(C)c1ccc(O)cc1 | > 46 |
| CN(C)C(=N)NC(=N)N.Cl | > 46 |
| O=C([O-])[C@H](O)[C@@H](O)[C@H](O)[C@H](O)CO.[Na+] | > 46 |
| O=C(C3=CC=CC=C3)O[C@@H]1C[C@H](CC2)N(C)[C@H]2[C@H]1[C@@](OC)=O.Cl | > 46 |
| COc1ccc(Cc2nccc3cc(OC)c(OC)cc23)cc1OC.Cl | > 46 |
| O=C([C@H]([C@]4=CC=CC=C4)CO)O[C@@H]1C[C@@H]3[C@@H]2[C@@H](O2)[C@@H]([N@+]([O-])3C)C1.Br | > 46 |
| O=C1[C@@](CC2)(C)[C@@](C)(C)[C@H]2C1 | > 46 |
| CC1CS(=O)(=O)CCN1/N=C/c1ccc([N+](=O)[O-])o1 (configuration not stated) | > 46 |
| COC(F)(F)C(Cl)Cl | > 46 |
| C[C@]12CCC(=O)C[C@@H]1CC[C@@H]1[C@@H]2CC[C@]2(C)[C@@H](O)CC[C@@H]12 | > 46 |
| COP(=S)(OC)Oc1ccc(S(=O)(=O)N(C)C)cc1 | > 46 |
| C[C@H](CCC(=O)O)[C@H]1CC[C@H]2[C@@H]3C(=O)C[C@@H]4CC(=O)CC[C@]4(C)[C@H]3CC(=O)[C@]12C | > 46 |
| Cl.NCC(O)c1cccc(O)c1 (configuration not stated) | > 46 |

Continued, values first:

| IC50 [µM] | Compound |
| --- | --- |
| > 46 | CO[C@H]1/C=C/O[C@@]2(C)Oc3c(C)c(O)c4c(O)c(c5c(nc6cc(C)ccn65)c4c3C2=O)NC(=O)/C(C)=C\C=C\[C@H](C)[C@H](O)[C@@H](C)[C@@H](O)[C@@H](C)[C@H](OC(C)=O)[C@@H]1C |
| > 46 | Cn1nnnc1SCC1=C(C(=O)[O-])N2C(=O)[C@@H](NC(=O)[C@H](O)c3ccccc3)[C@H]2SC1.[Na+] |
| > 46 | Brc1c(NC2=NCCN2)ccc2nccnc12 |
| > 46 | COc1ccc(NS(=O)(=O)c2ccc(N)cc2)nn1 |
| > 46 | O=C1CN(N=Cc2ccc(-c3ccc([N+](=O)[O-])cc3)o2)C(=O)[N-]1.[Na+] |
| > 46 | COc1c(N2C[C@@H]3CCCN[C@@H]3C2)c(F)cc2c(=O)c(C(=O)O)cn(C3CC3)c12.Cl |
| > 46 | CC(=O)Oc1ccc(C)cc1 |
| > 46 | CC(C)N1CCN(c2ccc(OC[C@H]3COC(Cn4cncn4)(c4ccc(Cl)cc4Cl)O3)cc2)CC1 (some centres not stated) |
| > 46 | CCCCCN(CCCCC)C(=O)C(CCC(=O)[O-])NC(=O)c1ccc(Cl)c(Cl)c1.[Na+] (configuration not stated) |
| > 46 | Clc1ccccc1-c1nc(-c2ccncc2)no1 |
| > 46 | COc1ccc(S(=O)(=O)Nc2nnc(CC(C)C)s2)cc1 |
| > 46 | COc1ccc(CC2c3cc(OC)c(OC)cc3CC[N+]2(C)CCC(=O)OCCCCCOC(=O)CC[N+]2(C)CCc3cc(OC)c(OC)cc3C2Cc2ccc(OC)c(OC)c2)cc1OC.O=S(=O)([O-])c1ccccc1.O=S(=O)([O-])c1ccccc1 (configuration not stated) |
| > 46 | CCCCCC(C=O)=Cc1ccccc1 |
| > 46 | N=C(N)NN=Cc1c(Cl)cccc1Cl |
| > 46 | Cl.Oc1cn2c(n1)Nc1ccc(Cl)c(Cl)c1C2 |
| > 46 | C[C@H]1c2cccc(O)c2C(=O)C2=C(O)[C@]3(O)C(=O)C(C(N)=O)=C(O)[C@@H](N(C)C)[C@@H]3[C@@H](O)[C@@H]21.Cl |
| > 46 | COC(=O)[C@H]1[C@H]2C[C@H]3c4[nH]c5ccccc5c4CCN3C[C@H]2CC[C@@H]1O |
| > 46 | O=[C@@](OCCl)[C@](CC2)(OC(OCC)=O)[C@]1(C)[C@]2([H])[C@@](CCC3=CC4=O)([H])[C@]([C@](C)3C=C4)([H])[C@@H](O)C1 |
| > 46 | CNCCCN1c2ccccc2CCc2ccccc21.Cl |
| > 46 | Cc1ccc(S(=O)(=O)NC(=O)NN2CCCCCC2)cc1 |
| > 46 | CCCNC(=O)NS(=O)(=O)c1ccc(Cl)cc1 |

| IC50 [µM] | Compound |
| --- | --- |
| > 46 | O=C(Oc1cccc2cccnc12)c1ccccc1 |
| > 46 | OC(CN1CCC(Cc2ccc(F)cc2)CC1)c1ccc(Cl)cc1 (configuration not stated) |
| > 46 | COc1cc(NS(=O)(=O)c2ccc(N)cc2)ncn1 |
| > 46 | n\24c1c(CCN3[C@H]1[C@](/C=C/2C(=O)OCC)(CCC3)CC)c5c4cccc5 |
| > 46 | O=[C@](NC5=CC(C(F)(F)F)=CC=C5C(F)(F)F)[C@@H]4[C@@]3(C)CC[C@]2([H])[C@@]1(C)C=CC(N[C@@]([H])1CC[C@]([H])2[C@@]([H])3CC4)=O |
| > 46 | N=C(N)NC(=O)c1nc(Cl)c(N)nc1N |
| > 46 | O=P([O-])(O)C(O)(Cc1cccnc1)P(=O)([O-])O.[Na+].[Na+] |
| > 46 | CC(C)CN(C[C@@H](O)[C@H](Cc1ccccc1)NC(=O)O[C@@H]1CCOC1)S(=O)(=O)c1ccc(N)cc1 |
| > 46 | CCN(CC)CCNC(=O)COc1ccc(OC)cc1.Cl |
| > 46 | CC(=O)O.N=C(N)NCCC[C@H](NC(=O)[C@@H]1CCCN1C(=O)[C@@H]1CSSC[C@H](N)C(=O)N[C@@H](Cc2ccc(O)cc2)C(=O)N[C@@H](Cc2ccccc2)C(=O)N[C@@H](CCC(N)=O)C(=O)N[C@@H](CC(N)=O)C(=O)N1)C(=O)NCC(N)=O |
| > 46 | CC(C)Cc1ccc([C@@H](C)C(=O)NS(C)(=O)=O)cc1 |
| > 46 | [C@]43(\C(=C2\C(c1c(O)cccc1[C@](C2C[C@H]3[C@@H](/C(=C(\C4=O)C(NCN5CCCC5)=O)O)N(C)C)(O)C)=O)O)O (some centres not stated) |
| > 46 | CCn1cc(C(=O)O)c(=O)c2cc(F)c(N3CCNCC3)cc21 |
| > 46 | CCN(CC)CCNC(=O)C1C(C)=NC(/C=C2/C(=O)Nc3ccc(F)cc32)=C1C.O=C(O)CC(O)C(=O)O (configuration not stated) |
| > 46 | CC[N+](CC)(CC)CCC(O)(c1ccccc1)C1CCCCC1.[Cl-] (configuration not stated) |
| > 46 | O=C(OCc1ccccc1)c1cccnc1 |
| > 46 | CN(C)C/C=C(/c1ccc(Br)cc1)c1cccnc1.Cl.Cl.O |
| > 46 | COc1ccccc1OC(=O)Oc1ccccc1OC |
| > 46 | CCN(CC)C(=O)c1cccnc1 |
| > 46 | NC(=O)N1c2ccccc2C=Cc2ccccc21 |
